Results reported in PubChem BioAssay AID1918957 (Molecular Pharmacology Branch, DTP, NCI, 2023).
Where “and” joins values, the source holds several entries; their conditions need not be identical. Equal values may be shown once.

Tested on: NCI-H1876 complex spheroid viability
Experiment: Anticancer human tumor NCI-H1876 cell line growth inhibition [LSD1];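 also: spheroids exposed to compounds for one week before readout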;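 as to viability, T/C: 100% = DMSO vehicle-treated spheroids so lower means fewer viable cells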
Details: for viability, T/C: stronger effect = lower value
Procedure, shortened: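 Complex spheroids of tumor cells with HUVEC and human MSCs, exposed to iadademstat combined with other agents. Each agent tested in half-log steps from near clinical Cmax (else 10 microM top), DMSO ≤0.25%.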

[1] = curve of first compound, second compound 0.1 µM
[2] = curve of first compound, second compound 0.316 µM
[3] = curve of first compound, second compound 1 µM
[4] = curve of first compound, second compound 3.16 µM
[5] = curve of first compound, second compound 10 µM
[6] = second compound 0.1 µM, first compound 0.00949 µM
[7] = second compound 0.1 µM, first compound 0.03 µM
[8] = second compound 0.1 µM, first compound 0.0949 µM
[9] = second compound 0.1 µM, first compound 0.3 µM
[10] = second compound 0.316 µM, first compound 0.00949 µM
[11] = second compound 0.316 µM, first compound 0.03 µM
[12] = second compound 0.316 µM, first compound 0.0949 µM
[13] = second compound 0.316 µM, first compound 0.3 µM
[14] = second compound 1 µM, first compound 0.00949 µM
[15] = second compound 1 µM, first compound 0.03 µM
[16] = second compound 1 µM, first compound 0.0949 µM
[17] = second compound 1 µM, first compound 0.3 µM
[18] = second compound 3.16 µM, first compound 0.00949 µM
[19] = second compound 3.16 µM, first compound 0.03 µM
[20] = second compound 3.16 µM, first compound 0.0949 µM
[21] = second compound 3.16 µM, first compound 0.3 µM
[22] = second compound 10 µM, first compound 0.00949 µM
[23] = second compound 10 µM, first compound 0.03 µM
[24] = second compound 10 µM, first compound 0.0949 µM
[25] = second compound 10 µM, first compound 0.3 µM

## O=C(C=Cn1cnc(-c2cc(C(F)(F)F)cc(C(F)(F)F)c2)n1)NNc1cnccn1
Compound 0.00316 µM
  viability, T/C: 99.2% and 92.7%
Compound 0.01 µM
  viability, T/C: 91% and 89.3%
Compound 0.0316 µM
  viability, T/C: 84.4% and 80%
Compound 0.1 µM
  viability, T/C: 47.8% and 42%
Compound 0.316 µM
  viability, T/C: 23.1% and 16.6%
Compound 1 µM
  viability, T/C: 16.3% and 9.98%
Curve of compound
  IC50: 94.9 nM and 79.1 nM

## O=C(C=Cc1cccc(S(=O)(=O)Nc2ccccc2)c1)NO + NC1CC1c1ccc(-c2cccc(O)c2)cc1
[1]
  IC50: 165 nM
[2]
  IC50: 165 nM
[3]
  IC50: 171 nM
[4]
  IC50: 178 nM
[5]
  IC50: 157 nM
[6]
  viability, T/C: 110%
[7]
  viability, T/C: 111%
[8]
  viability, T/C: 81.1%
[9]
  viability, T/C: 16.3%
Second compound 0.1 µM, first compound 0.949 µM
  viability, T/C: 6.97%
Second compound 0.1 µM, first compound 3 µM
  viability, T/C: 0.3%
[10]
  viability, T/C: 107%
[11]
  viability, T/C: 115%
[12]
  viability, T/C: 80.4%
[13]
  viability, T/C: 16.8%
Second compound 0.316 µM, first compound 0.949 µM
  viability, T/C: 5.12%
Second compound 0.316 µM, first compound 3 µM
  viability, T/C: 0.27%
[14]
  viability, T/C: 114%
[15]
  viability, T/C: 109%
[16]
  viability, T/C: 85.6%
[17]
  viability, T/C: 15.9%
Second compound 1 µM, first compound 0.949 µM
  viability, T/C: 5.57%
Second compound 1 µM, first compound 3 µM
  viability, T/C: 0.28%
[18]
  viability, T/C: 111%
[19]
  viability, T/C: 111%
[20]
  viability, T/C: 87.8%
[21]
  viability, T/C: 18.4%
Second compound 3.16 µM, first compound 0.949 µM
  viability, T/C: 5.71%
Second compound 3.16 µM, first compound 3 µM
  viability, T/C: 0.36%
[22]
  viability, T/C: 108%
[23]
  viability, T/C: 102%
[24]
  viability, T/C: 71.7%
[25]
  viability, T/C: 21.7%
Second compound 10 µM, first compound 0.949 µM
  viability, T/C: 5.51%
Second compound 10 µM, first compound 3 µM
  viability, T/C: 0.42%

## Nc1ccccc1NC(=O)c1ccc(CNC(=O)OCc2cccnc2)cc1
Compound 0.00949 µM
  viability, T/C: 103% and 93.5%
Compound 0.03 µM
  viability, T/C: 97.7% and 77.7%
Compound 0.0949 µM
  viability, T/C: 79.1% and 44.3%
Compound 0.3 µM
  viability, T/C: 24.9% and 14%
Compound 0.949 µM
  viability, T/C: 10.3% and 4.22%
Compound 3 µM
  viability, T/C: 8.9% and 0.64%
Curve of compound
  IC50: 176 nM and 77.3 nM

## Nc1ncn(C2CC(O)C(CO)O2)c(=O)n1 (stereo unspecified)
Compound 0.00316 µM
  viability, T/C: 97.2% and 101%
Compound 0.01 µM
  viability, T/C: 96.9% and 105%
Compound 0.0316 µM
  viability, T/C: 102% and 103%
Compound 0.1 µM
  viability, T/C: 97.4% and 97%
Compound 0.316 µM
  viability, T/C: 86.7% and 106%
Compound 1 µM
  viability, T/C: 86% and 83.6%
Curve of compound
  IC50: > 1000 nM

## Nc1ccn(C2OC(CO)C(O)C2(F)F)c(=O)n1 (stereo unspecified) + NC1CCC(NC2CC2c2ccccc2)CC1
[1]
  IC50: 6.89 nM
[2]
  IC50: 6.69 nM
[3]
  IC50: 6.77 nM
[4]
  IC50: 6.75 nM
[5]
  IC50: 6.25 nM
Second compound 0.1 µM, first compound 0.000949 µM
  viability, T/C: 111%
Second compound 0.1 µM, first compound 0.003 µM
  viability, T/C: 101%
[6]
  viability, T/C: 30.3%
[7]
  viability, T/C: 22.3%
[8]
  viability, T/C: 22.9%
[9]
  viability, T/C: 10.8%
Second compound 0.316 µM, first compound 0.000949 µM
  viability, T/C: 104%
Second compound 0.316 µM, first compound 0.003 µM
  viability, T/C: 96%
[10]
  viability, T/C: 29.7%
[11]
  viability, T/C: 18.1%
[12]
  viability, T/C: 11.7%
[13]
  viability, T/C: 9.66%
Second compound 1 µM, first compound 0.000949 µM
  viability, T/C: 111%
Second compound 1 µM, first compound 0.003 µM
  viability, T/C: 96.7%
[14]
  viability, T/C: 30.3%
[15]
  viability, T/C: 18.6%
[16]
  viability, T/C: 12.1%
[17]
  viability, T/C: 11.3%
Second compound 3.16 µM, first compound 0.000949 µM
  viability, T/C: 110%
Second compound 3.16 µM, first compound 0.003 µM
  viability, T/C: 107%
[18]
  viability, T/C: 26.2%
[19]
  viability, T/C: 23.2%
[20]
  viability, T/C: 17.9%
[21]
  viability, T/C: 9.56%
Second compound 10 µM, first compound 0.000949 µM
  viability, T/C: 109%
Second compound 10 µM, first compound 0.003 µM
  viability, T/C: 90.8%
[22]
  viability, T/C: 26.4%
[23]
  viability, T/C: 23.5%
[24]
  viability, T/C: 17.8%
[25]
  viability, T/C: 10.5%
